Values of other authors, collected in patent publication US20060089319A1, “Method for treatment and prevention of bacterial vaginosis” (priority 2004, published 2006).

Tested on: bacterial vaginosis

Cc1ncc([N+](=O)[O-])n1CCO [metronidazole]
hospital admissions for preterm labor, preterm births, PROM, and low-birth-weight infants (oral, high-risk women with previous preterm delivery, double-blind study by Morales et al.): fewer | long-term suppression of bacterial vaginosis flora (duration) (oral, pregnant women, two separate studies): 2-3 months | treatment of bacterial vaginosis in pregnant women, thereby preventing preterm delivery (pregnant women, numerous studies): effective treatment
